According to patent publication US20060194828A1, “Vitamin comprising pyroloquinoline quinone and use thereof” (priority 2003, published 2006):
“Also recorded” adds a separate entry of the source.

Assays:
AASDH activity (mU26) = test: PQQ-deficient feedstuff given to mice, levels of amino acids and AAA in blood; format: in vivo, mouse; conditions: PQQ-deficient vs PQQ-added (100 ng PQQ·2Na per gram) feedstuff, ICR female mice, 20 days
Source text: The mice were fed with feedstuff, to which PQQ had not been added (−PQQ) or had been added (+PQQ) and which had chemically been limited, for 20 days. Thereafter, the peripheral blood was collected therefrom, and amino acids contained in the blood were quantified using an amino acid analyzer. The amount of lysine (A) was indicated with a percentage to the total amount of amino acids in blood. The amount of 2-aminoadipic acid was normalized with lysine (B) or glycine (C). The horizontal line represents the mean value of mice in each group.
In order to clarify the role of PQQ influenced on AASDH activity, feedstuff containing no PQQ was given to mice, and such influence was examined. Chemically defined feedstuff (to which no PQQ was added or 100 ng PQQ·2Na was added per gram of feedstuff) was produced in accordance with the publication (Killgore, J. et al. (1989) Science 245, 850-852; Steinberg, F. M. et al. (1994) J. Nutr. 124, 744-753). The thus produced feedstuff was given to virgin female mice (ICR, 4-week-old) for 20 days. The levels of various amino acids and AAA in blood were measured by the above-described method. […] In particular, when normalization was carried out with the amount of lysine, AAA was reduced most clearly (FIG. 6B).

PQQ-deficient mice = conditions: skin fragility, skeletal abnormality, decreased immune response, poor reproduction and growth; cited from earlier work

Q: For `O=C(O)c1cc(C(=O)O)c2c(n1)C(=O)C(=O)c1cc(C(=O)O)[nH]c1-2` [PQQ, pyrroloquinoline quinone], which “level of AAA (2-aminoadipic acid) in blood” value (AASDH activity (mU26); normalized with lysine or glycine) is on record?
A: reduced more significantly; also recorded: significantly decreased in PQQ-deficient mice

Q: What about the “amount of lysine in blood” value (AASDH activity (mU26); percentage to total amino acids in blood) of the same compound?
A: not significantly different; also recorded: not changed

Q: And the “amount of PQQ added to feedstuff that recovered the abnormalities of PQQ-deficient mice” value (PQQ-deficient mice)?
A: ≥ 800 ng per gram of feedstuff
